Results as given in the NIST ThermoML archive (doi:10.1007/s10765-010-0766-0).
Several values for one entry are separate records, joined by “and”; a condition that tells them apart may be missing. Identical values can stand only once.

Experiment: wn = mass fraction of the nth substance listed
Conditions: Liquid, Pycnometric method, w2 = 0.4981

FC(F)C(F)(F)F [pentafluoroethane] + FCF
Conditions | mass density
277.15 K, 11982 kPa | 1205.5 kg/m3
278.15 K, 12826 kPa | 1205.4 kg/m3
279.15 K, 13669 kPa | 1205.2 kg/m3
280.15 K, 14512 kPa | 1205.1 kg/m3
281.15 K, 15355 kPa | 1204.9 kg/m3
282.15 K, 16198 kPa | 1204.8 kg/m3
283.15 K, 17040 kPa | 1204.6 kg/m3
284.15 K, 17881 kPa | 1204.5 kg/m3
285.15 K, 18722 kPa | 1204.3 kg/m3
286.15 K, 19563 kPa | 1204.2 kg/m3
287.15 K, 20403 kPa | 1204 kg/m3
288.15 K, 21239 kPa | 1203.8 kg/m3
289.15 K, 22077 kPa | 1203.7 kg/m3
291.15 K, 23750 kPa | 1203.4 kg/m3
292.15 K, 24585 kPa | 1203.2 kg/m3
293.15 K, 25420 kPa | 1203 kg/m3
294.15 K, 26254 kPa | 1202.9 kg/m3
295.15 K, 27085 kPa | 1202.7 kg/m3
296.15 K, 27917 kPa | 1202.5 kg/m3
297.15 K, 8118 kPa | 1113.5 kg/m3
297.15 K, 28747 kPa | 1202.3 kg/m3
298.15 K, 29575 kPa | 1202.2 kg/m3
299.15 K, 9422 kPa | 1113.3 kg/m3
300.15 K, 10072 kPa | 1113.2 kg/m3
300.15 K, 10089 kPa | 1113.1 kg/m3
301.15 K, 10723 kPa | 1113.1 kg/m3
301.15 K, 10737 kPa | 1113 kg/m3
302.15 K, 11374 kPa | 1113 kg/m3
302.15 K, 11385 kPa | 1112.9 kg/m3
303.15 K, 12024 kPa | 1112.9 kg/m3
303.15 K, 12032 kPa | 1112.8 kg/m3
304.15 K, 12672 kPa | 1112.8 kg/m3
304.15 K, 12680 kPa | 1112.7 kg/m3
305.15 K, 13320 kPa | 1112.6 kg/m3
305.15 K, 13327 kPa | 1112.5 kg/m3
306.15 K, 13970 kPa | 1112.5 kg/m3
306.15 K, 13973 kPa | 1112.4 kg/m3
307.15 K, 14620 kPa | 1112.4 kg/m3 and 1112.3 kg/m3
308.15 K, 15268 kPa | 1112.3 kg/m3 and 1112.2 kg/m3
309.15 K, 15915 kPa | 1112.1 kg/m3
309.15 K, 15917 kPa | 1112.1 kg/m3
310.15 K, 16562 kPa | 1111.9 kg/m3
310.15 K, 16564 kPa | 1112 kg/m3
311.15 K, 17208 kPa | 1111.8 kg/m3
311.15 K, 17212 kPa | 1111.9 kg/m3
312.15 K, 17853 kPa | 1111.7 kg/m3
312.15 K, 17859 kPa | 1111.7 kg/m3
313.15 K, 18499 kPa | 1111.6 kg/m3
313.15 K, 18506 kPa | 1111.6 kg/m3
314.15 K, 19144 kPa | 1111.4 kg/m3
314.15 K, 19153 kPa | 1111.5 kg/m3
315.15 K, 19788 kPa | 1111.3 kg/m3
315.15 K, 19798 kPa | 1111.3 kg/m3
316.15 K, 20432 kPa | 1111.2 kg/m3
316.15 K, 20443 kPa | 1111.2 kg/m3
317.15 K, 21075 kPa | 1111 kg/m3
317.15 K, 21088 kPa | 1111.1 kg/m3
318.15 K, 21719 kPa | 1110.9 kg/m3
318.15 K, 21733 kPa | 1110.9 kg/m3
319.15 K, 22362 kPa | 1110.7 kg/m3
319.15 K, 22377 kPa | 1110.8 kg/m3
320.15 K, 23005 kPa | 1110.6 kg/m3
320.15 K, 23021 kPa | 1110.7 kg/m3
321.15 K, 23648 kPa | 1110.5 kg/m3
321.15 K, 23665 kPa | 1110.5 kg/m3
322.15 K, 24289 kPa | 1110.3 kg/m3
322.15 K, 24307 kPa | 1110.4 kg/m3
323.15 K, 24930 kPa | 1110.2 kg/m3
323.15 K, 24949 kPa | 1110.3 kg/m3
324.15 K, 25571 kPa | 1110 kg/m3
324.15 K, 25590 kPa | 1110.1 kg/m3
325.15 K, 26210 kPa | 1109.9 kg/m3
325.15 K, 26231 kPa | 1110 kg/m3
326.15 K, 26850 kPa | 1109.8 kg/m3
326.15 K, 26871 kPa | 1109.8 kg/m3
327.15 K, 27488 kPa | 1109.6 kg/m3
327.15 K, 27511 kPa | 1109.7 kg/m3
328.15 K, 28127 kPa | 1109.4 kg/m3
328.15 K, 28150 kPa | 1109.5 kg/m3
329.15 K, 5865 kPa | 921.2 kg/m3
329.15 K, 5904 kPa | 921.4 kg/m3
329.15 K, 28764 kPa | 1109.3 kg/m3
329.15 K, 28790 kPa | 1109.4 kg/m3
330.15 K, 6231 kPa | 921.1 kg/m3
330.15 K, 6255 kPa | 921.2 kg/m3
330.15 K, 6269 kPa | 921.3 kg/m3
330.15 K, 29402 kPa | 1109.1 kg/m3
330.15 K, 29426 kPa | 1109.2 kg/m3
331.15 K, 6598 kPa | 921 kg/m3
331.15 K, 6620 kPa | 921.1 kg/m3
331.15 K, 6635 kPa | 921.2 kg/m3
331.15 K, 30065 kPa | 1109.1 kg/m3
332.15 K, 6965 kPa | 921 kg/m3
332.15 K, 6987 kPa | 921 kg/m3
